Source: patent publication US4443452A, “Dibenzodiazepinones, pharmaceutical compositions thereof and method of use thereof” (Dr. Karl Thomae GmbH, priority 1982, dated 1984)

Key:
[1] = biological target: muscarinic receptors (cerebral cortex); experiment: Binding to muscarinic receptors, 3H-N-methylscopolamine displacement, cerebral cortex; design: species or system male Sprague-Dawley rats; conditions: cerebral cortex homogenate 1:3000; 0.3 n molar 3H-N-methylscopolamine; 30° C., 45 minutes; pH 7.4; read-out: Receptor binding tests IC50, Cortex
Protocol: (§1) 3. STUDIES OF BINDING TO MUSCARINIC RECEPTORS: DETERMINATION OF THE IC50 VALUES
(§2) The organ donors were male Sprague-Dawley rats with a body weight of from about 180 to 220 gm each. After the heart, stomach, and cerebral cortex had been removed, the remainder of the operation was carried out in ice-cold Hepes-HCl buffer (pH 7.4; 100 m molar NaCl, 10 m molar MgCl2). The smooth muscle of the fundus of the stomach was separated from the mucous membrane of the stomach and subjected to preliminary homogenization. The whole heart was cut up with scissors. All the organs were then homogenized in a Potter apparatus.
(§3) For the binding test, the homogenized organs were diluted as follows:
(§4) The homogenized organ preparations were incubated at a specific concentration of the radioligand and with a series of concentrations of the non-radioactive test substances in an Eppendorf centrifuge tube at 30° C. The duration of incubation was 45 minutes. As substance 0.3 n molar ^3 H-N-methylscopolamine (^3 H-NMS) was used as the radioligand. After incubation had been brought to an end by centrifuging at 14000 g, the radioactivity in the pellet was determined. It represents the sum of the specific and non-specific binding of ^3 H-NMS. The proportion of non-specific binding was defined as the radioactivity which was bound in the presence of 1μ molar quinuclidinylbenzylate. Four measurements were taken in each case. The IC50 values of the non-labelled test substances were determined graphically. They represent the concentration of test substance at which the specific binding of ^3 H-NMS to the muscarinic receptors in the various organs was inhibited by 50%.

[2] = biological target: muscarinic receptors (smooth muscle of the fundus of the stomach); experiment: Binding to muscarinic receptors, 3H-N-methylscopolamine displacement, smooth muscle of fundus of stomach; design: species or system male Sprague-Dawley rats; conditions: smooth muscle of fundus homogenate 1:100; 0.3 n molar 3H-N-methylscopolamine; 30° C., 45 minutes; pH 7.4; read-out: Receptor binding tests IC50, Smooth Muscle Fundus of Stomach
Protocol: as §1, §2, §3
Smooth muscle of the fundus of the stomach: 1:100
as §4

[3] = biological target: T1, muscarinic receptors (whole heart) (Rattus norvegicus, UniProt P10980); experiment: Binding to muscarinic receptors, 3H-N-methylscopolamine displacement, whole heart; design: species or system male Sprague-Dawley rats; conditions: whole heart homogenate 1:250; 0.3 n molar 3H-N-methylscopolamine; 30° C., 45 minutes; pH 7.4; read-out: Receptor binding tests IC50, Heart
T1 construct: from tissue; host or cells: whole heart of male Sprague-Dawley rats, homogenate
T1 sequence (P10980 1-466): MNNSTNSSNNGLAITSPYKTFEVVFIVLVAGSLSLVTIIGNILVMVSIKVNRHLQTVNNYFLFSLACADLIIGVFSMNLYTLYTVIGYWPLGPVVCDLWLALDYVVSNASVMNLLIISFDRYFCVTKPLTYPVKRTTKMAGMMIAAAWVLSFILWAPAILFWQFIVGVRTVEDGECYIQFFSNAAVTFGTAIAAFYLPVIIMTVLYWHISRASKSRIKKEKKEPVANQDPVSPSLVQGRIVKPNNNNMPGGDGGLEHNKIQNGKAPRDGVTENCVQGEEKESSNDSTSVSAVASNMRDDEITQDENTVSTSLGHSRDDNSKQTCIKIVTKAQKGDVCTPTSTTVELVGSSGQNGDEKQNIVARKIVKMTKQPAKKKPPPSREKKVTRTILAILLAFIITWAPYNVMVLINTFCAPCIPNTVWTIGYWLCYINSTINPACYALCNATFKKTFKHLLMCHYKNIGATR
Protocol: as §1, §2, §3
as §4, with “It represents the sum of the specific and non-specific binding of ^3 H-NMS.” left out, “Four measurements were taken in each case.” left out, “They represent the concentration of test substance at which the specific binding of ^3 H-NMS to the muscarinic receptors in the various organs was inhibited by 50%.” left out

[4] = system: muscarinic receptors (oxotremorine-induced lesions in the mucous membrane of the stomach); experiment: Oxotremorine test: lesions in the mucous membrane of the stomach (anti-ulcerative effect); type: in vivo, female albino rats (Crl:COBS-CD (SD) BR strain); conditions: iv; rat, test substance i.v. 15 minutes before oxotremorine 0.62 mg/kg i.v.; neostigmine 1 mg/kg oral
Protocol: (§5) Oxotremorine, a specific against for muscarinic receptors produces lesions in the mucous membrane of the stomach in rats and increases their secretion of saliva. This test method was chosen so that any selective activity of an antimuscarinic substance on the stomach could be identified.
(§6) Ten female albino rats (of the Crl:COBS-CD (SD) BR strain) with a body weight of from 120 to 150 gm apiece were used in each treatment group and were kept without food for 24 hours before the start of the test but given free access to drinking water.
(§7) To determine, in preliminary tests, the muscarinic effect of oxotremorine on each of the symptons studies, a dosage/activity curve was drawn up with at least three dosages for each symptom.
(§8) When the antimuscarinic substances were tested, the dosage of oxotremorine which triggered the symptom in question in 90 to 100% of the animals in the preliminary tests was used.
Lesions in the mucous membrane of stomach: 0.62 mg/kg i.v.
(§9) Each antimuscarinic substance was administered intravenously in uniformly graduated doses 15 minutes before the oxotremorine was administered. Control groups were given corresponding quantities of the solvent and suspension agent instead of the test substance. Immediately after the oxotremorine was administered, the animals were placed in a glass case for 15 minutes and observed.
The effects on lesions of the nucous membrane of the stomach were evaluated as follows:
The lesions of the gastric mucous membrane were produced by intravenous injection of 0.62 mg/kg of oxotremorine 30 minutes after the oral administration of 1 mg/kg of neostigmine (a cholinesterase inhibitor). Sixty minutes after the administration of the neostigmine, the animals were killed, and the stomachs were removed, opened, and examined for the presence of any lesions in the mucous membrane. The protective effect of the test substances was expressed as the percentage inhibition (percentage of animals with lesions).
The ED50 and ED70 values were determined using the method of LITCHFIELD and WILCOXON (eee above).

[5] = system: muscarinic receptors (oxotremorine-induced secretion of saliva); experiment: Oxotremorine test: inhibition of salivation; type: in vivo, female albino rats (Crl:COBS-CD (SD) BR strain); conditions: iv, 0.25 h; rat, test substance i.v. 15 minutes before oxotremorine 0.083 mg/kg i.v.; blind test
Protocol: as §5, §6, §7, §8
Secretion of saliva: 0.083 mg/kg i.v.
as §9
The ED50 values were determined using the method described by LITCHFIELD and WILCOXON (J. Pharmacol. Exp. Ther. 96, 99, 1949).

Testing for mydriasis = experiment: Testing for mydriasis; design: species or system rats; conditions: in vivo, iv; rat; pupil size observed for 10 minutes; blind test
Protocol: The effect of the test substances on the pupil size in rats was investigated as follows:
The substances were administered intravenously to groups of 10 animals in at least three uniformly graduated doses.

CN1CCC(OC(=O)N2c3ccccc3NC(=O)c3ccccc32)CC1 [A]
IC50 [1]: 5.5 nM | IC50 [2]: 60 nM | IC50 [3]: 42 nM | ED50 [4]: 0.0155 mg/kg | ED70 [4]: 0.036 mg/kg | ED50 [5]: 0.064 mg/kg | ED50 at 10 min (Testing for mydriasis): 0.071 mg/kg

CN1CCC(NC(=O)N2c3ccccc3NC(=O)c3ccccc32)CC1 [B]
IC50 [1]: 13 nM | IC50 [2]: 100 nM | IC50 [3]: 75 nM | ED50 [4]: 0.0025 mg/kg | ED70 [4]: 0.0048 mg/kg | ED50 [5]: 0.022 mg/kg | ED50 at 10 min (Testing for mydriasis): 0.023 mg/kg

CN1CCN(NC(=O)N2c3ccccc3NC(=O)c3ccccc32)CC1 [C]
IC50 [1]: 18 nM | IC50 [2]: 90 nM | ED50 [4]: 0.0036 mg/kg | ED70 [4]: 0.007 mg/kg | ED50 [5]: 0.032 mg/kg | ED50 at 10 min (Testing for mydriasis): 0.0825 mg/kg
